Test results as given in patent US6355261B1, “Ultraviolet radiation absorbing waxes useful in cosmetic compositions” (priority 1999, dated 2002).

Columns and labels:
[1] = Solubility of HDDS in esters of dibasic acids; format: physicochemical
[2] = Ultraviolet radiation transmittance and SPF of sunscreen lotions, LABSPHERE Ultraviolet Transmittance Analyzer
Experimental: Sunscreen lotion compositions were made and tested for UV absorbance. A control sample sunscreen lotion was made without a compound of formula (I) and a test sample was made in accordance with the invention, using a compound of formula (I) wherein n is 6 (HDDS). Table 1 summarizes the composition of the control and HDDS sunscreen lotions, by wt. %.
To prepare the sunscreen lotions, the A phase ingredients were blended together and heated to 90° C. to dissolve the oxybenzone. Next, the B phase ingredients were added with stirring until homogeneous. In a separate vessel, EDTA was dissolved in water and heated to 85° C. A preblended mixture of preservative, butylene glycol, and glycerin was added to the EDTA/water solution. In a separate vessel, carbomer was dispersed in 50 g water and set aside. With homogenization, the A+B oil phase was added to the C water phase. Next, the pre-dispersed carbomer D phase was added to the A+B+C mixture. While maintaining the temperature at 85° C., the mixture was homogenized for about 10 minutes, and then removed from heat and stirred with a propellor while cooling. When the temperature was below 40° C., the neutralizer E was slowly added and the mixture was stirred until a smooth, homogeneous lotion resulted.
Ultraviolet radiation transmittance and SPF of the control and HDDS samples were measured over the range 290 to 400 nm using a LABSPHERE Ultraviolet Transmittance Analyzer. Five scans were performed on each sample. Critical Wavelength (nm) and SPF data are reported in Table 2 below for the control and HDDS samples.
The ordinate represents absorbance, in units log(base 10)*(1/transmittance (%)), and the abscissa represents wavelength in nanometers.

[3] = HDDS in a sunscreen lotion versus control lotion

Which “soluble in diisopropyl adipate” value ([1]; solvent diisopropyl adipate) does the source give for `O=C(OCCCCCCOC(=O)c1ccccc1O)c1ccccc1O` [HDDS, hexanediol disalicylate] here?
Its value is “at least 5 % by weight”.

And the “soluble in dilsopropyl sebacate” value ([1]; solvent dilsopropyl sebacate)?
The value was “at least 5 % by weight”.

What about the “soluble in dioctyl adipate” value ([1]; solvent dioctyl adipate) of the same compound?
Its value is “at least 5 % by weight”.

And the “soluble in dioctyl maleate” value ([1]; solvent dioctyl maleate)?
The value was “at least 5 % by weight”.

What about the “soluble in dioctyl sebacate” value ([1]; solvent dioctyl sebacate) of the same compound?
Its value is “at least 5 % by weight”.

What about the “UV absorbance of the lotion” value ([2]; FIG. 1, average of five scans, versus control sample) of the same compound?
The value was “increases UV absorbance of the lotion at every wavelength of radiation measured”.

And the “SPF value of the lotion” value [2, 3]?
Its value is “boosts the SPF value”.

What about the “transmittance of UVA and UVB radiation” value [2, 3] of the same compound?
The value was “reduces the transmittance of UVA and UVB radiation”.
